Measurements as given in patent US6413958B2, “4-hydroxy-1,8-naphthyridine-3-carboxamides as antiviral agents” (Pharmacia & Upjohn Company, priority 2000, dated 2002).

Experiments:
HCMV polymerase = target: T1, HCMV polymerase (Human cytomegalovirus, UniProt P08546); assay: HCMV polymerase assay (scintillation proximity assay, modified version); assay type: biochemical; conditions: modified HCMV polymerase SPA; for IC50: compounds diluted in 100% DMSO, 4.5 mM DTT
T1 construct: made in house; host or cells: recombinant baculovirus-infected SF-9 cells
T1 sequence (P08546 whole entry): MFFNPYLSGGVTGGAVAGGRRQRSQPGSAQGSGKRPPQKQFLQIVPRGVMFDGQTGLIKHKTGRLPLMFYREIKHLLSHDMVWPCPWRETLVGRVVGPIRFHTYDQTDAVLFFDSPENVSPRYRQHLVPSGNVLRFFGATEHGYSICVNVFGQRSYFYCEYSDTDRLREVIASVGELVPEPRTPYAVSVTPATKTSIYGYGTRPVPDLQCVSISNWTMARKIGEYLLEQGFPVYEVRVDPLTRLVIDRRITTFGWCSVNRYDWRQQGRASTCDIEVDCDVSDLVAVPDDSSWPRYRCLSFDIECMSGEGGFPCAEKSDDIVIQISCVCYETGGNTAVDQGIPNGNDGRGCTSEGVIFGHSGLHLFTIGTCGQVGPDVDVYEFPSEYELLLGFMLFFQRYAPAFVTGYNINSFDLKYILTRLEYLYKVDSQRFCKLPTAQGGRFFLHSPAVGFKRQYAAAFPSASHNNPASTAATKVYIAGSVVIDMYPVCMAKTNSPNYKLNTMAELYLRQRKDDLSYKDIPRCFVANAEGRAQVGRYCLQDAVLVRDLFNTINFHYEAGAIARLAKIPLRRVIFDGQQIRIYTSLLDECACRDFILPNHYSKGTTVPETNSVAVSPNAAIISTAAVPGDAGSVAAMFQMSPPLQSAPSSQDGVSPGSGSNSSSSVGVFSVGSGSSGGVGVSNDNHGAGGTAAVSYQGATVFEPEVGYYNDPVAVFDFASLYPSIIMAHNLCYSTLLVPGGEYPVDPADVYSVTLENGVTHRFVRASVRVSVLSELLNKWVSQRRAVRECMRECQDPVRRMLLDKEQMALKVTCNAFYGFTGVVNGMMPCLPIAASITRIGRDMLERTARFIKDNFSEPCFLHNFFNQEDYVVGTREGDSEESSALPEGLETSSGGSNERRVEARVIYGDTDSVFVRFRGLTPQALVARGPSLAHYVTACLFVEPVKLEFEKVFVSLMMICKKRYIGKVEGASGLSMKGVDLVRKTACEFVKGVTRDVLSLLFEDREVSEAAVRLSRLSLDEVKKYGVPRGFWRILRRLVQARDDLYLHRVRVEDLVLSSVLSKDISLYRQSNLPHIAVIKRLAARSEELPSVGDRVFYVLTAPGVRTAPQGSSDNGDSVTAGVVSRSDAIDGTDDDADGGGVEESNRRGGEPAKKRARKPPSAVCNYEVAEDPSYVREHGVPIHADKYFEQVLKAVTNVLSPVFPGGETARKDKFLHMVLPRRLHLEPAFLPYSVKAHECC
Description: The HCMV polymerase assay is performed using a scintillation proximity assay (SPA) as described in several references, such as N. D. Cook, et al., Pharmaceutical Manufacturing International, pages 49-53 (1992); K. Takeuchi, Laboratory Practice, September issue (1992); U.S. Pat. No. 4,568,649 (1986); which are incorporated by reference herein. Reactions are performed in 96-well plates. The assay is conducted in 100 μl volume with 5.4 mM HEPES (pH 7.5), 11.7 mM KCl, 4.5 mM MgCl2, 0.36 mg/ml BSA, and 90 nM ^3H-dTTP. Assays are run with and without CHAPS, (3-[(3-cholamidopropyl)-dimethylammonio]-1-propane-sulfonate) at a final concentration of 2 mM. HCMV polymerase is diluted in enzyme dilution buffer containing 50% glycerol, 250 mM NaCl, 10 mM HEPES (pH 7.5), 100 μg/ml BSA, and 0.01% sodium azide. The HCMV polymerase, which is expressed in recombinant baculovirus-infected SF-9 cells and purified according to literature procedures, is added at 10% (or 10 μl) of the final reaction volume, i.e., 100 μl. Compounds are diluted in 50% DMSO and 10 μl are added to each well. Control wells contain an equivalent concentration of DMSO. Unless noted otherwise, reactions are initiated via the addition of 6 nM biotinylated poly(dA)-oligo(dT) template/primer to reaction mixtures containing the enzyme, substrate, and compounds of interest. Plates are incubated in a 25° C. or 37° C. H2O bath and terminated via the addition of 40 μl/reaction of 0.5 M EDTA (pH 8) per well. Reactions are terminated within the time-frame during which substrate incorporation is linear and varied depending upon the enzyme and conditions used, i.e., 30 min. for HCMV polymerase. Ten μl of streptavidin-SPA beads (20 mg/ml in PBS/10% glycerol) are added following termination of the reaction. Plates are incubated 10 min. at 37° C., then equilibrated to room temperature, and counted on a Packard Topcount. Linear regressions are performed and IC50's are calculated using computer software.
A modified version of the above HCMV polymerase assay is performed as described above, but with the following changes: Compounds are diluted in 100% DMSO until final dilution into assay buffer. In the previous assay, compounds are diluted in 50% DMSO. 4.5 mM dithiotherotol (DTT) is added to the polymerase buffer. […] All results are listed as Polymerase IC50 (μM) values. In Table 1, the term “nd” refers to activity data not determined.

melting point	IC50 (HCMV polymerase)	HCMV polymerase inhibition (HCMV polymerase; at 20 μm)	Structure (SMILES)
280 to 285 °C (dec.)	26 µM		Cc1ccc2c(O)c(C(=O)NCc3ccc(Cl)cc3)cnc2n1 [Example 1, N-(4-chlorobenzyl)-4-hydroxy-7-methyl[1,8]naphthyridine-3-carboxamide]
269 to 270 °C		39% inhibition	Cc1nc2ncc(C(=O)NCc3ccc(Cl)cc3)c(O)c2cc1Br [Example 2, 6-bromo-N-(4-chlorobenzyl)-4-hydroxy-7-methyl[1,8]naphthyridine-3-carboxamide]
279 to 281 °C (dec.)	2.1 µM		Cc1nc2ncc(C(=O)NCc3ccc(Cl)cc3)c(O)c2cc1C#CCO [Example 3, N-(4-chlorobenzyl)-4-hydroxy-6-(3-hydroxy-1-propynyl)-7-methyl[1,8]naphthyridine-3-carboxamide]
276 to 277 °C	13.7 µM		Cc1nc2ncc(C(=O)NCc3ccc(Cl)cc3)c(O)c2cc1I [Example 4, N-(4-chlorobenzyl)-4-hydroxy-6-iodo-7-methyl[1,8]naphthyridine-3-carboxamide]
265 to 267 °C	8.5 µM		COC(=O)c1cc2c(O)c(C(=O)NCc3ccc(Cl)cc3)cnc2nc1C [Example 5, Methyl 6-{[(4-chlorobenzyl)amino]carbonyl}-5-hydroxy-2-methyl[1,8]naphthyridine-3-carboxylate]
